The text below walks through data of patent US20220267390A1, “MPS MODIFIED PEPTIDES AND USE THEREOF” (The Regents of the University of California, priority 2019, published 2022).

In assay [1] the test system is H1650 cells. It is filed as cell-based. The method, then:
IC50 (half maximal inhibitory concentration; μM) values in lung cancer cells. […] The residues marked in red/bold are D-isoforms of amino acids (SEQ ID NOS: 57, 48-54, 40-42 45 and 47 in order of appearance).
Molecular basis of MPS peptide and its potential for increasing nintedanib efficacy. […] A kinetic assay confirmed that this peptide binds PIP2 with a dissociation constant of 17.64 nM (FIG. 10B). As expected, a decrease of PIP3 pools in whole cell lysates of MPS-treated IPF fibroblasts was observed (FIG. 10C), supporting the notion that MPS peptide is able to inhibit AKT activation through trapping PIP2. In view of adverse effects of the current IPF therapeutic nintedanib^9, 10, there is an urgent clinical need to improve the efficacy of such treatment in IPF. Since the TGF-β receptor is not a direct target of nintedanib, targeting an element of TGF-β signaling in tandem with nintedanib administration circumvents the shortcomings of nintedanib monotherapy. […] Based on the above observations, it is assumed that TGF-β-directed phospho-MARCKS is a bypass mechanism of activating PI3K/AKT signaling (FIG. 11B); therefore, it seems reasonable that MARCKS inhibition by MPS treatment may improve nintedanib efficacy, permitting lower doses of nintedanib to be used. To this end, the possibility of a synergistic interaction between MPS and nintedanib in order to circumvent the shortcomings of nintedanib monotherapy was tested. […] Furthermore, the Chou and Talalay CI (combination index) method^25 was used to evaluate the therapeutic interactions between nintedanib and MPS peptide. […] Particularly, the values were lower than 1 at ED50, approximately 1 at ED75, and above 1 at ED90 (data not shown). Thus, the combination effect was dose-dependently correlated with the components, and therefore low dose nintedanib in combination with low dose of MPS presents a synergistic effect on cell proliferation. […] On the basis of the sequences of MPS peptide, the rearrangement of PIP2-binding sites in this peptide were designed and synthesized with the intention of enhancing the efficacy and stability of the MPS peptide. FIG. 13 lists the sequences of various MPS derivatives. In light of the cleavage sites of various proteases and PIP2 binding motifs, Applicant replaced some L-isoform amino acids with D-isoform and these peptides were named as MPS-12042 and MPS-22026. To further validate the efficacy of the above MPS derivatives, Applicant performed a dose-course analysis of H1650 cells undergoing each MPS derivative treatment.

Assay [2] relates to primary IPF fibroblasts. Nature of the assay: Combination of nintedanib and MPS peptide, cell viability by MTT, Chou and Talalay CI. The note with it: nintedanib 62.5-2000 nM and/or MPS 6.25-200 μM, 72 hours. It counts as cell-based, human. On the procedure:
FIGS. 12A-12E: (FIGS. 12A-12B) Combinatorial effect of MPS peptide with nintedanib on fibroblasts isolated from two IPF patients. Cells were treated with various closes of nintedanib (62.5-2000 nM) and/or MPS peptide (6.25-200 μM) for 72 hours, respectively. After single ([…]) or combined ([…]) treatment, cell viability was determined by MTT assays. (FIG. 12C) The Chou and Talalay CI (combination index) method was utilized to evaluate the therapeutic interactions between nintedanib and MPS peptide using the Calcusyn software. Gray line, additive effect of the combination of MPS peptide and the drug is represented at CI=1. (FIG. 12D) Cells were individually treated with 1 μM nintedanib, 100 μM MPS peptide or combinations of 1 μM nintedanib and 100 μM MPS peptide. After 48 hours, cell viability was determined by the trypan blue exclusion assay (n+3; *, p<0.05). […] Molecular basis of MPS peptide and its potential for increasing nintedanib efficacy. […] A kinetic assay confirmed that this peptide binds PIP2 with a dissociation constant of 17.64 nM (FIG. 10B). As expected, a decrease of PIP3 pools in whole cell lysates of MPS-treated IPF fibroblasts was observed (FIG. 10C), supporting the notion that MPS peptide is able to inhibit AKT activation through trapping PIP2. […]

For assay [3], the system named is α-SMA and phospho-AKT. Kind of assay: Western blot of α-SMA and phospho-AKT in primary IPF fibroblasts. It is filed as cell-based, human. The note with it: nintedanib 1000 nM, 48 hours. The method, then:
FIGS. 11A-11B: (FIG. 11A) Western blot analysis of α-SMA and phospho-AKT in primary IPF fibroblasts with nintedanib (1000 nM) and/or MPS (100 μM) for 48 hours. (FIG. 11B) A proposed model of activating the PI3K/AKT pathway after nintedanib treatment. An arrow: a direct interaction. Western blot analyses and the preparations of whole-cell lysates have been previously described^14, 16, 27 For whole cell lysates, cells were lysed in a lysis buffer (50 mM Tris-HCl (pH 7.4), 1% Triton X-100, 10% glycerol, 150 mM NaCl, 1 mM EDTA, 20 μg/ml leupeptin, 1 mM PMSF and 20 μg/ml aprotinin) and separated by SDS-PAGE. Immunoblotting was conducted with appropriate antibodies followed by chemiluminescent detection. For immunofluorescent staining, after an antigen retrieval step, tissue slides were reacted with antibodies against FITC-labeled α-SMA and TRITC-conjugated phospho-MARCKS, and nuclei were demarcated with DAPI staining. The cells were mounted onto slides and visualized using fluorescence microscopy (model Axiovert 100; Carl Zeiss, Oberkochen, Germany) or a Zeiss LSM510 laser-scanning confocal microscope image system.
On the technique in general: Immunoblotting shows a protein as a band on a membrane.

The subject of assay [4] is IPF fibroblast cells. Kind of assay: cells. It counts as cell-based, human. The note with it: Homo sapiens; IPF fibroblast cells, 72 hours; read-out: IC50 inhibiting IPF fibroblast proliferation. On the procedure:
FIG. 14: Comparison of MPS-12042 (SEQ ID NO: 45) versus know tyrosine kinase inhibitor (TKLs) on the treatment of IPF fibroblast cells. Both normal and IPF lung fibroblast cells were treated with various drugs. After 72 hours, cells were subjected to MTT assays and IC50 for each drug was determined.
Human primary fibroblast cells were obtained from airway tissues provided from the UC Davis Medical Hospital (Sacramento, Calif.) with consent. The protocol for human tissue procurement and usage were periodically reviewed and approved by the University Human Subject Research Review Committee. Primary fibroblast cell lines, IPF-1 and IPF-2 cells, were established from IPF patients. Cells were obtained from lung biopsies and the diagnosis of IPF was supported by patient history, physical examination, pulmonary function tests, and typical high-resolution chest computed tomography findings of IPF. […] All patients fulfilled the criteria for the diagnosis of IPF as established by the American Thoracic Society and European Respiratory Society. Non-fibrotic primary control adult human lung fibroblast lines, Normal-1 and Normal-2 cells were used. These lines were established from normal lung tissue or histologically normal lung tissue adjacent to carcinoid tumor. The IPF cell line, LL97A, was purchased from the American Type Culture Collection (ATCC) (Manassas, Va.). Lung fibroblast lines were cultured in high-glucose DMEM or RPMI-1640 medium with 10% fetal bovine serum and 1% penicillin-streptomycin at 37° C. in a humidified atmosphere of 5% CO2. Fibroblasts were used between passages 4 and 8. Cells were characterized as fibroblasts as described^26.
Cells were seeded onto 96-well plates at a density of 5-10×10^3 cells per well and cultured for the indicated treatment. Cell proliferation was evaluated using a MTS assay kit (Promega, Madison, Wis.). Twenty microliters of the combined MTS/PMS solution was added into each well, incubated for 3 hours at 37° C., and the absorbance was measured at 490 nm by using an ELISA reader. For Trypan blue test, cells were plated on 12-well plates and treated with the indicated chemotherapeutic agents. After 72 hours, both attached and detached cells were collected and then stained with 0.2% trypan blue (0.1% final concentration), and the number of trypan blue-positive and -negative cells was counted using a haemocytometer under low-power microscopy. For colony-forming assays, 200 cells were seeded in each well of six-well plates. IPF-1 or IPF-2 primary cells were treated with peptides at the indicated concentrations for 10 days. Colonies were stained using 0.001% crystal violet and the number of colonies with a diameter greater than 0.5 mm was counted under an inverted microscope.

Where a SMILES comes first, the peptide text is derived from it. Where no end group is shown, it is not given here. [ ]: non-standard residue; d: D form.

As for `CC(C)C[C@@H](NC(=O)[C@@H](C)NC(=O)[C@@H](Cc1ccccc1)NC(=O)[C@@H](C)NC(=O)CNC(=O)[C@@H](Cc1ccccc1)NC(=O)[C@H](C)NC(=O)[C@@H](Cc1ccccc1)NC(=O)[C@H](CCCCN)NC(=O)[C@H](CCCCN)NC(=O)[C@H](CCCCN)NC(=O)[C@H](CCCCN)NC(=O)[C@@H](N)CCCCN)C(=O)N[C@@H](CCCCN)C(=O)N[C@H](CCCCN)C(=O)N[C@H](Cc1ccccc1)C(=O)N[C@@H](C)C(=O)N[C@H](Cc1ccccc1)C(=O)N[C@H](CCCNC(=N)N)C(=O)N[C@H](CCCCN)C(=O)N[C@@H](CCCCN)C(=O)N[C@@H](CCCCN)C(=O)N[C@@H](CC(N)=O)C(=O)N[C@H](CCCCN)C(=O)N[C@@H](CCCCN)C(=O)O` [MPS-22026] (H-KKKKK[dF]A[dF]G[dA][dF][dA][dL]K[dK][dF]A[dF][dR][dK]KKN[dK]K-OH; N-terminus and C-terminus assumed), the IC50 in assay [1] came out at 11 µM.

For the molecule `COC(=O)c1ccc2c(c1)NC(=O)/C2=C(\Nc1ccc(N(C)C(=O)CN2CCN(C)CC2)cc1)c1ccccc1` [nintedanib, reference compound], the Cell viability entry in assay [2] is given as “decreased”. Further, in assay [3], the phospho-AKT result was “no change” and the α-SMA expression result is “increase”. For the same molecule, the IC50 in assay [4] fell in the range of 13.8 to 15.9 µM.

As to AKKKKRFSFKKSFKLSGFSFKKNKK [MPS-11001], in assay [1], the IC50 was 85 µM. Consider “Ac-KKKKKRFSFKKSFKLSGFSFKKNKK-NH2 [MPS-11200]”, for which, in assay [1], the IC50 is 78 µM. Turning to FSFGSFSLKKFSFRKKKNKK [MPS-21010], in assay [1], the IC50 was found to be 83 µM.

For the molecule KKAKKRFSFKKSFKLSGFSFKKNKK [MPS-11003], the IC50 in assay [1] came out at 85 µM.

Consider KKKKFAFGAFALKKFAFRKKKNKK [MPS-21026], for which the IC50 in assay [1] was determined as 49 µM. Still for that read-out and setting: as for KKKKFSFGSFSLKKFSFRKKKNKK [MPS-21020], the figure is 64 µM; as for KKKKKAFSFKKSFKLSGFSFKKNKK [MPS-11006], 79 µM. On the same count and under the same terms, to KKKKKRFSFAKSFKLSGFSFKKNKK [MPS-11010] belongs 73 µM; to KKKKKRFSFKASFKLSGFSFKKNKK [MPS-11011], 29 µM; to KKKKKRFSFKKSFKLSGFSFKANKK [MPS-11022], 83 µM.
